Like-named read-outs stand apart in the source and are kept apart here.
How the values were obtained:
Assay type in all cases: biochemical
B. corporis = assay: Aminopeptidase activity on β-naphthylamide substrates; conditions: strain ATCC 33547; β-naphthylamine liberated after 60 minutes, 37° C.
Method: (§1) The enzyme activity was measured by the chromogenic properties of N-CBz-glycyl-glycyl-L-arginine-β-naphthylamide which upon hydrolysis gives a visible color. The aminopeptidase activities listed in the table reflect the nanomoles of β-naphthylamine liberated after 60 minutes under the conditions described below.
(§2) After mixing, the solution is incubated for 1 hour at 37° C. and then 0.4 ml of a solution of stabilized diazonium salt, Fast Garnet GBC (0.5 mg/ml) in a 1M acetic acid buffer (pH 4.2), containing 10% Tween 20 was added to the mixture. After standing for 15 minutes at room temperature, the color reaction can be read manually by comparison with standard solutions or the absorbancy can be determined using a spectrophotometer at 525 nm. The reaction mixture without enzyme solution is used as a control.

C. sputigena = assay: as above; conditions: strain ATCC 33123; β-naphthylamine liberated after 60 minutes, 37° C.
Method: as §1, §2

B. intermedius = assay: as above; conditions: strain ATCC 25611; β-naphthylamine liberated after 60 minutes, 37° C.
Method: as §1, §2

B. melaninogenicus = assay: as above; conditions: strain ATCC 25845; β-naphthylamine liberated after 60 minutes, 37° C.
Method: as §1, §2

B. denticola = assay: as above; conditions: strain ATCC 33185; β-naphthylamine liberated after 60 minutes, 37° C.
Method: as §1, §2

Veillonella sp. = conditions: strain SE1M2; β-naphthylamine liberated after 60 minutes, 37° C.
Method: as §1, §2
(§3) The enzyme activity and the aminopeptidase activities were determined in the manner described above in regard to Table I.

"Anaerobic vibrio" = conditions: strain SN2T2; β-naphthylamine liberated after 60 minutes, 37° C.
Method: as §1, §2, §3

Actinomyces israeli = conditions: β-naphthylamine liberated after 60 minutes, 37° C.
Method: as §1, §2, §3

A. viscosus = conditions: β-naphthylamine liberated after 60 minutes, 37° C.
Method: as §1, §2, §3

Streptococcus mitis = conditions: β-naphthylamine liberated after 60 minutes, 37° C.
Method: as §1, §2, §3

[1] = system: Actinobacillus actinomycetemcomitans; conditions: β-naphthylamine liberated after 60 minutes, 37° C.
Method: as §1, §2, §3

S. sanguis = conditions: β-naphthylamine liberated after 60 minutes, 37° C.
Method: as §1, §2, §3

S. mutans = conditions: strain ATCC 25175; β-naphthylamine liberated after 60 minutes, 37° C.
Method: as §1, §2, §3

F. periodonticum = assay: Aminopeptidase activity on β-naphthylamide substrates; conditions: strain EK1-15; β-naphthylamine liberated after 60 minutes, 37° C.
Method: as §1, §2, §3

Haemophilus aphrophilus = assay: as above; conditions: β-naphthylamine liberated after 60 minutes, 37° C.
Method: as §1, §2, §3

S. salivarius = assay: as above; conditions: β-naphthylamine liberated after 60 minutes, 37° C.
Method: as §1, §2, §3

A. equuli = assay: as above; conditions: strain ATCC 19392; β-naphthylamine liberated after 60 minutes, 37° C.
Method: as §1, §2, §3

A. suis = assay: as above; conditions: strain ATCC 15557; β-naphthylamine liberated after 60 minutes, 37° C.
Method: as §1, §2, §3

Lactobacillus casei = assay: as above; conditions: β-naphthylamine liberated after 60 minutes, 37° C.
Method: as §1, §2, §3

L. fermentum = assay: as above; conditions: strain ATCC 11581; β-naphthylamine liberated after 60 minutes, 37° C.
Method: as §1, §2, §3

Bacteroides gingivalis = conditions: β-naphthylamine liberated after 60 minutes, 37° C.
Method: as §1, §2

Capnocytophaga sp. = conditions: strain JD3-5; β-naphthylamine liberated after 60 minutes, 37° C.
Method: as §1, §2

B. levii = conditions: β-naphthylamine liberated after 60 minutes, 37° C.
Method: as §1, §2

[2] = system: Capnocytophaga gingivalis; conditions: strain ATCC 33624; β-naphthylamine liberated after 60 minutes, 37° C.
Method: as §1, §2

B. asaccharolyticus = conditions: β-naphthylamine liberated after 60 minutes, 37° C.
Method: as §1, §2

C. ochracea = conditions: strain ATCC 27872; β-naphthylamine liberated after 60 minutes, 37° C.
Method: as §1, §2

B. mel. ss. intermedius = conditions: β-naphthylamine liberated after 60 minutes, 37° C.
Method: as §1, §2

B. loescheii = conditions: β-naphthylamine liberated after 60 minutes, 37° C.
Method: as §1, §2

Cl.N=C(N)NCCC[C@H](NC(=O)CNC(=O)CNC(=O)OCc1ccccc1)C(=O)Nc1ccc2ccccc2c1 [N-CBz-Gly-Gly-Arg, N-carbobenzoxy-glycyl-glycyl-L-arginine-β-naphthylamide hydrochloride]
Aminopeptidase activity (B. corporis): 1 nmol
Aminopeptidase activity (C. sputigena): 5 nmol
Aminopeptidase activity (B. intermedius): 0 nmol
Aminopeptidase activity (B. melaninogenicus): 0 nmol
Aminopeptidase activity (B. denticola): 0 nmol
Aminopeptidase activity (Veillonella sp.): 0 nmol
Aminopeptidase activity ("Anaerobic vibrio"): 1 nmol
Aminopeptidase activity (Actinomyces israeli; strain ATCC 12103): 0 nmol
Aminopeptidase activity (Actinomyces israeli; strain DK2-3): 0 nmol
Aminopeptidase activity (A. viscosus; strain ATCC 19246): 0 nmol
Aminopeptidase activity (A. viscosus; strain T14V): 0 nmol
Aminopeptidase activity (Streptococcus mitis; strain ATCC 9815): 0 nmol
Aminopeptidase activity (Streptococcus mitis; strain ATCC 15909): 0 nmol
Aminopeptidase activity (Streptococcus mitis; strain ATCC 15912): 0 nmol
Aminopeptidase activity ([1]; strain 67): 0 nmol
Aminopeptidase activity ([1]; strain 75): 0 nmol
Aminopeptidase activity ([1]; strain ATCC 29523): 0 nmol
Aminopeptidase activity ([1]; strain NCTC 9709): 1 nmol
Aminopeptidase activity ([1]; strain Y4): 0 nmol
Aminopeptidase activity (S. sanguis; strain ATCC 10556): 0 nmol
Aminopeptidase activity (S. sanguis; strain ATCC 10557): 0 nmol
Aminopeptidase activity (S. mutans): 0 nmol
Aminopeptidase activity (F. periodonticum): 0 nmol
Aminopeptidase activity (Haemophilus aphrophilus; strain ATCC 13252): 1 nmol
Aminopeptidase activity (Haemophilus aphrophilus; strain ATCC 19415): 1 nmol
Aminopeptidase activity (Haemophilus aphrophilus; strain NCTC 5908): 0 nmol
Aminopeptidase activity (S. salivarius; strain ATCC 9759): 0 nmol
Aminopeptidase activity (S. salivarius; strain ATCC 25975): 0 nmol
Aminopeptidase activity (A. equuli): 0 nmol
Aminopeptidase activity (A. suis): 0 nmol
Aminopeptidase activity (Lactobacillus casei; strain ATCC 7469): 0 nmol
Aminopeptidase activity (Lactobacillus casei; strain ATCC 11578): 0 nmol
Aminopeptidase activity (Lactobacillus casei; strain ATCC 11582): 0 nmol
Aminopeptidase activity (L. fermentum): 0 nmol
Aminopeptidase activity (Bacteroides gingivalis; strain 9-14K-1): 61 nmol
Aminopeptidase activity (Bacteroides gingivalis; strain 11-1-2): 92 nmol
Aminopeptidase activity (Bacteroides gingivalis; strain 381): 91 nmol
Aminopeptidase activity (Bacteroides gingivalis; strain 1021): 44 nmol
Aminopeptidase activity (Bacteroides gingivalis; strain ATCC 33277): 84 nmol
Aminopeptidase activity (Bacteroides gingivalis; strain FAYE 19m-1): 143 nmol
Aminopeptidase activity (Capnocytophaga sp.): 0 nmol
Aminopeptidase activity (B. levii; strain 18-1-5): 0 nmol
Aminopeptidase activity (B. levii; strain 18-1-8): 1 nmol
Aminopeptidase activity [2]: 7 nmol
Aminopeptidase activity (B. asaccharolyticus; strain 536B): 1 nmol
Aminopeptidase activity (B. asaccharolyticus; strain ATCC 18569): 0 nmol
Aminopeptidase activity (B. asaccharolyticus; strain ATCC 25260): 0 nmol
Aminopeptidase activity (B. asaccharolyticus; strain ATCC 27067): 0 nmol
Aminopeptidase activity (B. asaccharolyticus; strain NY446): 2 nmol
Aminopeptidase activity (C. ochracea): 8 nmol
Aminopeptidase activity (B. mel. ss. intermedius; strain ATCC 25261): 0 nmol
Aminopeptidase activity (B. mel. ss. intermedius; strain ATCC 33563): 1 nmol
Aminopeptidase activity (B. mel. ss. intermedius; strain NCTC 9336): 1 nmol
Aminopeptidase activity (B. loescheii; strain ATCC 15930): 1 nmol
Aminopeptidase activity (B. loescheii; strain VPI4196): 0 nmol
